Source: patent publication US20050069541A1, “Composition for and treatment of demyelinating diseases and paralysis by administration of remyelinating agents” (priority 2003, published 2005)

What was measured:
[1] = system: EAE in female Hartley guinea pigs
[2] = Receptor-saturating levels of compound maintained in dosed EAE guinea pigs; assay type: in vivo; conditions: 30 mg/kg twice a day, subcutaneously, guinea pig
Protocol: Treatment Regimes. N-[N-(3-pyridinesulfonyl)-L-3,3-dimethyl-4-thiaprolyl]-O-[1-methylpiperazin-4-ylcarbonyl]-L-tyrosine isopropyl ester is a small molecule that binds with high affinity to human and guinea pig 4 integrin (IC50 for inhibition of cell adhesion to VCAM=1 nm). Disease in animals was considered chronic by day 40 post immunization, and thus the treatment period began at this time, and lasted for 10, 20, 30 or 40 days. Animals received either 0.5 mL saline (vehicle for N-[N-(3-pyridinesulfonyl)-L-3,3-dimethyl-4-thiaprolyl]-O-[1-methylpiperazin-4-ylcarbonyl]-L-tyrosine isopropyl ester; n=20) or 30 mg/kg N-[N-(3-pyridinesulfonyl)-L-3,3-dimethyl-4-thiaprolyl]-O-[1-methylpiperazin-4-ylcarbonyl]-L-tyrosine isopropyl ester (n=25) twice a day. With the dosing regimen, receptor saturation levels of N-[N-(3-pyridinesulfonyl)-L-3,3-dimethyl-4-thiaprolyl]-O-[1-methylpiperazin-4-ylcarbonyl]-L-tyrosine isopropyl ester (>10 nm) were maintained at all times. One subgroup of animals received N-[N-(3-pyridinesulfonyl)-L-3,3-dimethyl-4-thiaprolyl]-O-[1-methylpiperazin-4-ylcarbonyl]-L-tyrosine isopropyl ester for 30 days, and then treatment was withdrawn and the animals were maintained for an additional 10 days (n=5). All treatments were administered subcutaneously.
Treatment Regimes. Animals that met both treatment criteria were treated for intervals of 10, 20, 30 or 40 days. […]

[3] = system: guinea pig model of CP-EAE; conditions: with increasing duration of treatment; Piraino et al., 2002; cited from earlier work
[4] = system: infiltrating cells in spinal cord; experiment: Chronic EAE: mean cell counts in spinal cord (H-E sections, 0.12 mm^2 fields); assay type: in vivo, guinea pig; conditions: for Mean # Cells/0.12 mm^2: spinal cord
Protocol: To quantify the abnormalities observed in the spinal cord, sections stained with H-E were divided into 12 representative pie-shaped areas. In each area, the number of cells within a 0.12 mm^2 field of view was counted using Sigma Scan Pro image analysis software (SPSS Inc.), and the combined mean number of cells in all 12 areas was calculated for the whole spinal cord (36 fields of view per animal). Note that as all cell nuclei were counted, the number of cells may include neurons and glial cells in addition to infiltrates.

α4 integrin = α4 integrin (Homo sapiens, UniProt P05556+P13612); experiment: Inhibition of cell adhesion to VCAM; assay type: cell-based, human and guinea pig; conditions: human and guinea pig integrin; read-out: IC50 for inhibition of cell adhesion to VCAM
[5] = system: guinea pig model of CP-EAE; experiment: Remyelination and motor function in guinea pig CP-EAE; assay type: in vivo
Description: The number of lesions showing myelin pallor was divided by the total number of lesions within cross sections of spinal cord taken throughout its length from each animal (FIG. 10) (for the method see Warrington et al., 2000, Proc. Nat'l Acad. Sci. USA 97: 6820-5). […] In contrast, after 20 days of N-[N-(3-pyridinesulfonyl)-L-3,3-dimethyl-4-thiaprolyl]-O-[1-methylpiperazin-4-ylcarbonyl]-L-tyrosine isopropyl ester administration, the frequency of shadow plaques in the spinal cord was increased over saline-treated animals, reaching 68%; after 30 and 40 days, the incidence was 77% and 87%, respectively (p<0.001, 2-way ANOVA with Tukey test).
The overall degree of plaque remyelination in the spinal cord was also measured. […] Total lesion area was determined for each animal by tracing all lesions within all spinal cord sections and summing the areas. Likewise, the total area of remyelination was measured by tracing regions of myelin pallor. FIGS. 10C-F plot the total lesion area against the percentage of remyelination. In saline-treated animals, lesions rarely show any evidence of repair, with means ranging between 2 and 11%, and there were no significant differences over the 40-day treatment period (FIGS. 10C-F). In contrast, after 20, 30 or 40 days of N-[N-(3-pyridinesulfonyl)-L-3,3-dimethyl-4-thiaprolyl]-O-[1-methylpiperazin-4-ylcarbonyl]-L-tyrosine isopropyl ester treatment, the majority of lesions identified show a variable degree of remyelination ranged from 2 to 100% in the majority of lesions (mean area of remyelination approximately 50%) (FIGS. 10D-5). (p<0.001, 2-way ANOVA with Tukey test). Therefore while lesions were evident in all animals throughout the 40-day treatment period, N-[N-(3-pyridinesulfonyl)-L-3,3-dimethyl-4-thiaprolyl]-O-[1-methylpiperazin-4-ylcarbonyl]-L-tyrosine isopropyl ester increased the incidence and percentage of remyelination. Furthermore, evidence of remyelination in N-[N-(3-pyridinesulfonyl)-L-3,3-dimethyl-4-thiaprolyl]-O-[1-methylpiperazin-4-ylcarbonyl]-L-tyrosine isopropyl ester-treated animals is consistent with an observed regain of motor function. The starting point for treatment was a clinical score of 2, which denotes full bilateral hind limb paralysis. […] Functional recovery was never observed in control animals.

[6] = system: spinal cord lesions of paralyzed EAE guinea pigs; experiment: Example 2: spontaneous remyelination in chronic EAE (SCR, toluidine blue, EM, lesion area analysis, motor function); assay type: in vivo, guinea pig

α4 integrin, sequence (P13612 34-1032): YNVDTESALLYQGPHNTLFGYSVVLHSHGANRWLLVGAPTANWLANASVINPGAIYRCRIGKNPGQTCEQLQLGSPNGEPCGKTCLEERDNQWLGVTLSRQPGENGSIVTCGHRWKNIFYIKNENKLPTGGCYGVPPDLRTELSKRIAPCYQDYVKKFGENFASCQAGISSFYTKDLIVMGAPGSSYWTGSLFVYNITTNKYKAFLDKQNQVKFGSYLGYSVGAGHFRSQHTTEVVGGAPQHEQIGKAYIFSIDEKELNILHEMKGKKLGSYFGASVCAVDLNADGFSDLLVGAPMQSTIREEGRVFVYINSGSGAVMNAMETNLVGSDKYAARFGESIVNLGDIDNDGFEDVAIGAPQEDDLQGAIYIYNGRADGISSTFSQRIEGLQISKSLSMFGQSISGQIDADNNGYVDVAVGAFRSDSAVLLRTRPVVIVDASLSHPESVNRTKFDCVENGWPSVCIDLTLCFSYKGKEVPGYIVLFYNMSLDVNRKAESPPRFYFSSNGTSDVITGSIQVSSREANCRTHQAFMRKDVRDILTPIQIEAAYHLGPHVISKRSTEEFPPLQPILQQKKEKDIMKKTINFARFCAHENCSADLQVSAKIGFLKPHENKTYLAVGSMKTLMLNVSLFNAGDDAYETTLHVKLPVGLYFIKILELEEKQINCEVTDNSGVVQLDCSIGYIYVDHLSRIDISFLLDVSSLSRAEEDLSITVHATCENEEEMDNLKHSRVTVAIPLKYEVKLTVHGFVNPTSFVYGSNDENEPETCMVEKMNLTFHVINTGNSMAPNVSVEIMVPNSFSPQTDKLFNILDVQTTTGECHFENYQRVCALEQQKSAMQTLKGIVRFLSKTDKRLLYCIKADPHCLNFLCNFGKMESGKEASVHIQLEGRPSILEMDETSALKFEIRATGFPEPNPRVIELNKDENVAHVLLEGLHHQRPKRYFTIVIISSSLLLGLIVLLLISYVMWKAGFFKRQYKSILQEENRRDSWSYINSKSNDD
α4 integrin, sequence (P05556 21-798): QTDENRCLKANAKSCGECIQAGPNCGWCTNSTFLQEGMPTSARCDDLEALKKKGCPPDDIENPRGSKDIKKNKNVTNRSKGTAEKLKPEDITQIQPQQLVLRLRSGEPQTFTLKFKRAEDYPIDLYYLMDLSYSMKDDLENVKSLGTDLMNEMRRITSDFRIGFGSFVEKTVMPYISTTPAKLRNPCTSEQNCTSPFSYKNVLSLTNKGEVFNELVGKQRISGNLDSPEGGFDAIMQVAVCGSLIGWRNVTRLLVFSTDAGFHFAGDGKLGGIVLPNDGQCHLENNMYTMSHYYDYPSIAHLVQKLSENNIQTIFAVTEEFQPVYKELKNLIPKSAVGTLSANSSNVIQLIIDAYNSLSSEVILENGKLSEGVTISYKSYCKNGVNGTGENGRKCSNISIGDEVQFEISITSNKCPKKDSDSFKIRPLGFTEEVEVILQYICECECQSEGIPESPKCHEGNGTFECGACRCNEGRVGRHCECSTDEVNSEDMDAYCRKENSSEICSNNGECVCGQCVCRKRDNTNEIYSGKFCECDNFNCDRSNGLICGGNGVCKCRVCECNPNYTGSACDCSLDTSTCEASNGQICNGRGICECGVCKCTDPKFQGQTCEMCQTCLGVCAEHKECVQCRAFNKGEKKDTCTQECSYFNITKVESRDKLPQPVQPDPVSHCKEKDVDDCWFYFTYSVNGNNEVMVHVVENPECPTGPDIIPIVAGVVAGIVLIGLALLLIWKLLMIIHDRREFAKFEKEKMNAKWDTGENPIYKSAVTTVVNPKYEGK

CC(C)OC(=O)[C@H](Cc1ccc(OC(=O)N2CCN(C)CC2)cc1)NC(=O)[C@H]1N(S(=O)(=O)c2cccnc2)CSC1(C)C [N-[N-(3-pyridinesulfonyl)-L-3,3-dimethyl-4-thiaprolyl]-O-[1-methylpiperazin-4-ylcarbonyl]-L-tyrosine isopropyl ester]
start of clinical reversal following the initial treatment ([1]; 30 mg/kg 2x/day s.c.): 2 to 3 days
mean clinical score over the treatment period versus saline ([1]; 30 mg/kg 2x/day s.c. from day 40 for 10-40 days, p<0.001 Mann Whitney): significantly lower
mean clinical score day 70-80 after withdrawal (30 days treatment, 10 days off) versus continuous treatment ([1]; n=5, p<0.05 Mann Whitney): significantly greater
clinical score reached during treatment in animals with an established clinical score of 2 ([1]; several animals, paresis reversed): 1
escape from treatment ([1]; up to 40 days of treatment): None of the animals, however, escaped from treatment
receptor saturation levels maintained at all times [2]: > 10 nm
immune cell infiltrates and associated inflammatory mediators [3]: progressively reduce immune cell infiltrates
cell number in spinal cord versus saline-treated animals ([4]; after 10, 20, 30 or 40 days, p<0.001 two-way ANOVA): significant reduction
mean cell counts versus chronic (d40) control EAE animals ([4]; after 20, 30 or 40 days, p<0.05): significantly lower
mean cell count in spinal cord versus non-EAE animals ([4]; after 40 days of treatment): not different
mean cell count after removal of compound for 10 days versus continuous treatment ([4]; p<0.05): significant increase
rate of cell loss from spinal cord ([4]; slope of linear regression of mean cell counts, r^2=0.90): 8 cells/mm^2/day
Mean # Cells/0.12 mm^2 ([4]; D50 (10 days of treatment)): 97 ± 3.9 cells/0.12 mm^2
Mean # Cells/0.12 mm^2 ([4]; D60 (20 days of treatment)): 86 ± 4.2 cells/0.12 mm^2
Mean # Cells/0.12 mm^2 ([4]; D70 (30 days of treatment)): 89 ± 8 cells/0.12 mm^2
Mean # Cells/0.12 mm^2 ([4]; D80 (40 days of treatment)): 70 ± 4 cells/0.12 mm^2
IC50 (α4 integrin): 1 nM
mean area of remyelination ([5]; after 20, 30 or 40 days of treatment): approximately 50%
percentage of plaques exhibiting evidence of remyelination (frequency of shadow plaques in the spinal cord) ([5]; after 20 days of administration): 68%
percentage of plaques exhibiting evidence of remyelination (incidence) ([5]; after 30 days): 77%
percentage of plaques exhibiting evidence of remyelination (incidence) ([5]; after 40 days): 87%
treated animals in which paralysis was reversed to a clinical score of 1 ([5]; treatment started at clinical score of 2): 50%
myelin repair, share of the total lesion area ([6]; 30 mg/kg twice daily s.c.): 50%
SCR-stained spinal cord after 10 days of treatment ([6]; 10 days): minimal evidence of myelin pallor
SCR-stained spinal cord lesions after 20 days of treatment ([6]; 20 days): many lesions exhibited diffuse pale blue staining
SCR-stained spinal cord lesions after 40 days of treatment ([6]; 40 days): presented as shadow plaques
plaques showing evidence of remyelination ([6]; after 40 days of treatment, 30 mg/kg twice daily s.c.): 87%
semithin and EM sections of lesions ([6]; day 30 of treatment): multiple thin myelin layers around large caliber axons
animals that regained motor function ([6]; paralyzed guinea pigs, clinical score 2 at start): 50%
